Measured values taken from patent publication US4804502A, “Vitamin D compounds” (priority 1988, dated 1989).
Like-named read-outs stand apart in the source and are kept apart here.

Assays:
vitamin D deficient rats = conditions: 3 weeks
[1] = target: T1, 1,25-(OH)2 D3 receptors (rat intestine) (Rattus norvegicus, UniProt P13053); experiment: Competitive Binding to 1,25-(OH)2 D3 Intestine Receptors, rat; conditions: a/b×100 from amounts displacing 50% of 1,25-(OH)2[3H]D3
T1 construct: receptor prepared from intestine of chick, rat and calf; from tissue; host or cells: rat proximal small-intestine mucosa, cytosol, 35% ammonium sulphate precipitate
T1 sequence (P13053 1-423): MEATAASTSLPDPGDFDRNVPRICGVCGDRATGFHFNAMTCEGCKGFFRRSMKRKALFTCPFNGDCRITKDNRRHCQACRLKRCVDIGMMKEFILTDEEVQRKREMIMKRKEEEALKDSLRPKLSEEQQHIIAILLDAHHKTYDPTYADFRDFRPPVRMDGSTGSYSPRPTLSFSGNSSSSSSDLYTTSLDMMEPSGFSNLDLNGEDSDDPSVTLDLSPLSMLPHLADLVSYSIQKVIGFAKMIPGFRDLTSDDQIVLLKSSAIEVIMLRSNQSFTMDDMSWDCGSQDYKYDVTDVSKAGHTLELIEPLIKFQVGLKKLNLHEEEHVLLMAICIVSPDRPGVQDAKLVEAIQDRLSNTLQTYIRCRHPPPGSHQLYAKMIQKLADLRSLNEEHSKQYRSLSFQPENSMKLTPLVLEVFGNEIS
Procedure: (§1) The ability of vitamin D3 metabolites to compete for 1,25-(OH)[^3 H]D3 receptor binding sites was evaluated with receptor prepared from intestine of chick, rat and calf. The receptor was prepared by removing 10-12% of the small intestine immediately adjacent to the pyloric spincter which was washed immediately with cold buffer containing 500 mM KCl, 50 mM Tris, 1.5 mM EDTA, and 5 mM dithiothreitol, pH 7.4 (KTED buffer). Mucosa was collected and washed three times with 10 volumes of cold KTED buffer. The washed mucosa was homogenized in KTED buffer (20% w/v) using a Polytron Pt20 tissue disruptor. Cytosol was prepared by centrifugation of the homogenized mucosa at 300,000×g for 1 hour. Receptor was precipitated from the cytosol by the addition of ammonium sulphate to achieve 35% saturation. The ammonium sulphate treated cytosol was centrifuged at 20,000×g for 10 minutes. The supernatant was discarded and the pellet lyophilized and stored at […] Prior to binding assay the pellet was resuspended in cold binding assay buffer containing 150 mM KCl, 50 mM NaPO4, 1.5 mM EDTA and 5 mM dithiothreitol.

[2] = target: T2, 1,25-(OH)2 D3 receptors (calf intestine) (Bos taurus, UniProt Q28037); experiment: Competitive Binding to 1,25-(OH)2 D3 Intestine Receptors, calf; conditions: a/b×100 from amounts displacing 50% of 1,25-(OH)2[3H]D3
T2 construct: receptor prepared from intestine of chick, rat and calf; from tissue; host or cells: calf proximal small-intestine mucosa, cytosol, 35% ammonium sulphate precipitate
T2 sequence (Q28037 1-426): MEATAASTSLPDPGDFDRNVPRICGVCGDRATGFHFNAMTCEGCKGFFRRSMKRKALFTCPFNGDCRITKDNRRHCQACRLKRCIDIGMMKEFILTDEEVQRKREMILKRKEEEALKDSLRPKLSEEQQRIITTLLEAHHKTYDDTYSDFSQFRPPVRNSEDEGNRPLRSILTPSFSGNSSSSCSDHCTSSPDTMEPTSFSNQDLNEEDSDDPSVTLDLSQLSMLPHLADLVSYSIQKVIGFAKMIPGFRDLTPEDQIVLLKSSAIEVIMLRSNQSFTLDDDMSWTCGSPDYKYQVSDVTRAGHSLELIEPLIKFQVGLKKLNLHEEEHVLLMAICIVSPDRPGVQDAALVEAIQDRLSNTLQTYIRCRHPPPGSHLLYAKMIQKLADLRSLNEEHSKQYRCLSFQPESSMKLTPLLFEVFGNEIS
Procedure: as §1, with “The receptor was prepared by removing 10-12% of the small intestine immediately adjacent to the pyloric spincter which was washed immediately with cold buffer containing 500 mM KCl, 50 mM Tris, 1.5 mM EDTA, and 5 mM dithiothreitol, pH 7.4 (KTED buffer).” left out, “Receptor was precipitated from the cytosol by the addition of ammonium sulphate to achieve 35% saturation.” left out

[3] = test system: bone calcium mobilization; experiment: Bone Calcium Mobilization in Rat (plasma Ca increase); format: in vivo; conditions: intrajugular, 18 h
Procedure: Controls received carrier alone. Bone Ca resorption (BCR) was estimated by measuring the blood Ca increase in the treated rats. Blood was collected in heparinized tubes and centrifuged. The resulting plasma was measured for calcium concentration by atomic absorption spectroscopy. Since rats were fed a diet essentially devoid of Ca, plasma Ca increases reflected mobilization of Ca from bone, not intestinal Ca absorption.

SMILES | Bone Mass (vitamin D deficient rats; daily dose 18 ng) | Serum Ca^2+ (vitamin D deficient rats; daily dose 18 ng) | Serum PO4^2- (vitamin D deficient rats; daily dose 18 ng) | Bone Mass (vitamin D deficient rats; daily dose 72 ng) | Serum Ca^2+ (vitamin D deficient rats; daily dose 72 ng) | Serum PO4^2- (vitamin D deficient rats; daily dose 72 ng) | Competitive Binding to 1,25-(OH)2 D3 Receptors - % of 1,25-(OH)2 D3 Effect, rat intestine [1] | Competitive Binding to 1,25-(OH)2 D3 Receptors - % of 1,25-(OH)2 D3 Effect, calf intestine [2] | % of 1,25-(OH)2 D3 Effect in Rat, bone calcium mobilization ([3]; 12.5 ng/rat) | % of 1,25-(OH)2 D3 Effect in Rat, bone calcium mobilization ([3]; 15.5 ng/rat)
C=C1/C(=C\C=C2/CCC[C@]3(C)[C@@H]([C@H](C)CC#CC(O)(C(F)(F)F)C(F)(F)F)CC[C@@H]23)C[C@@H](O)C[C@@H]1O [Compound B] | 385 ± 77 mm^3 /cm^3 | 15.63 ± 0.36 mg/dL | 7.66 ± 0.17 mg/dL | 746 + 48 mm^3 /cm^3 | 15.23 ± 0.22 mg/dL | 6.34 ± 0.26 mg/dL | 142% | 62% | 0% | –
C=C1/C(=C\C=C2/CCC[C@]3(C)[C@@H]([C@H](C)CC#CC(C)(C)O)CC[C@@H]23)C[C@@H](O)C[C@@H]1O [Compound A, 1α,25-dihydroxy-23-yne-cholecalciferol] | – | – | – | – | – | – | 39% | 47% | – | 15%
